# Data as given in paper PMC8414367, “(E)-7-Ethylidene-lithocholic Acid (7-ELCA) Is a Potent Dual Farnesoid X Receptor (FXR) Antagonist and GPBAR1 Agonist Inhibiting FXR-Induced Gene Expression in Hepatocytes and Stimulating Glucagon-like Peptide-1 Secretion From Enteroendocrine Cells” (Frontiers in Pharmacology, 2021).
# Like-named read-outs stand apart in the source and are kept apart here.
# Key:
# GPBAR1 = molecular target: T1, GPBAR1 (Homo sapiens, UniProt Q8TDU6); assay: GPBAR1 CRE-luc luciferase reporter assay in HepG2 cells; format: cell-based; conditions: 10 µM, 5 h, LCA 10 µM set as 100%
# T1 construct: host or cells: HepG2
# T1 sequence (Q8TDU6 1-330): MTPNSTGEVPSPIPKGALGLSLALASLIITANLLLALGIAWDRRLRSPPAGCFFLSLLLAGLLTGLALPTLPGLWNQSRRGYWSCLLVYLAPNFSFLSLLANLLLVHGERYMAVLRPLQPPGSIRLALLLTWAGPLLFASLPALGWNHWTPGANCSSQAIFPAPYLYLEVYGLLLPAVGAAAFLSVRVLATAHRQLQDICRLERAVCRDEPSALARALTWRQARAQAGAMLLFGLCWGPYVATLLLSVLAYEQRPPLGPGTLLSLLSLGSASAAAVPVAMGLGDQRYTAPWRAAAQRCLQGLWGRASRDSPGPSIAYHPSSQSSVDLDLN
# Experimental: (C) Effects of LCA and 7-ELCA (both at 10 µM) on intracellular generation of cAMP in differentiated NCI-H716 cells after 30 min treatment. The increase in cAMP level (ΔcAMP) is presented as the difference between cAMP concertation in the treated sample after subtraction of the cAMP in the nontreated control sample. (D) Concentration-response curves for activation of GPBAR1 by LCA and 7-ELCA. EC50 values were calculated using nonlinear fitting of concentration-response curves. […] GLP-1 was normalized to protein concentration and GPBAR1 mRNA expression to GAPDH mRNA. Data are presented as a fold to control nontreated (NT) samples. Forskolin (FSK, 10 µM) was used as a GPBAR1-independent activator of cAMP production.
# HepG2 = assay: MTS viability assay; format: cell-based, human; conditions: Homo sapiens; HepG2, 24 h, MTS; read-out: IC50 (µM), cell viability
# Experimental: (§1) The potential cytotoxicity of 7-alkylated chenodeoxycholic acid derivatives were assessed in different human (HepG2, HepaRG and Huh7) and murine (AML12) hepatocyte-derived cell lines. For this purpose, hepatic cells were treated at increasing concentration for 24h and analyzed by MTS viability assay.
# (§2) Table S2. Cell viability was determined using the Cell Titer 96 Aqueous One Solution Cell Proliferation Assay (MTS assay) after treatment with test compounds for 24 h in four different hepatic cell lines. Vehicle (0.1% DMSO) and background (10% SDS; v/v, toxic control) controls of cell viability were set to be 100% and 0%, respectively.
# Huh7 = assay: MTS viability assay; format: cell-based, human; conditions: Homo sapiens, Huh-7; Huh7, 24 h, MTS; read-out: IC50 (µM), cell viability
# Experimental: as §1, §2
# MTS viability assay [1] = format: cell-based, human; conditions: human, vehicle = 100%
# Experimental: as §1, §2
# HepaRG = assay: MTS viability assay; format: cell-based, human; conditions: Homo sapiens, 24 h, MTS, read-out: IC50 (µM), cell viability
# Experimental: as §1, §2
# human FXR [2] = molecular target: T2, human FXR (Homo sapiens, UniProt Q96RI1); assay: FXR luciferase reporter gene assay (FXRE-luc) in HepG2 cells, antagonistic mode; format: cell-based; conditions: for remaining activity at 10 µM / remaining activity at 40 µM: HepG2; for remaining activity at 10 µM: tested compound 10 µM
# T2 sequence (Q96RI1 1-486): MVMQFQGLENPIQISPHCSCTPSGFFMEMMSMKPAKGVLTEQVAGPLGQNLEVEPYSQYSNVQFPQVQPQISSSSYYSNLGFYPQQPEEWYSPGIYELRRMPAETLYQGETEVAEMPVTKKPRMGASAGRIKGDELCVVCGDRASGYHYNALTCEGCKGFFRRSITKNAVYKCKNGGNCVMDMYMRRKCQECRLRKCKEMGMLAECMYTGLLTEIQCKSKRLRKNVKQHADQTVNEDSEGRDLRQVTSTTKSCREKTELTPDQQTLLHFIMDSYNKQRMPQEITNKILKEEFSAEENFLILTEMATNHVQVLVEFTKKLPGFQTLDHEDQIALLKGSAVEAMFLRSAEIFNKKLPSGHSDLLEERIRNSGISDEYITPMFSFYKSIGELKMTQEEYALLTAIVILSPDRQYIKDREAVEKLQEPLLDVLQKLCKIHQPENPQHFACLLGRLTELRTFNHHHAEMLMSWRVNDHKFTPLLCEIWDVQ
# T2 sequence (P19793 1-462 partner): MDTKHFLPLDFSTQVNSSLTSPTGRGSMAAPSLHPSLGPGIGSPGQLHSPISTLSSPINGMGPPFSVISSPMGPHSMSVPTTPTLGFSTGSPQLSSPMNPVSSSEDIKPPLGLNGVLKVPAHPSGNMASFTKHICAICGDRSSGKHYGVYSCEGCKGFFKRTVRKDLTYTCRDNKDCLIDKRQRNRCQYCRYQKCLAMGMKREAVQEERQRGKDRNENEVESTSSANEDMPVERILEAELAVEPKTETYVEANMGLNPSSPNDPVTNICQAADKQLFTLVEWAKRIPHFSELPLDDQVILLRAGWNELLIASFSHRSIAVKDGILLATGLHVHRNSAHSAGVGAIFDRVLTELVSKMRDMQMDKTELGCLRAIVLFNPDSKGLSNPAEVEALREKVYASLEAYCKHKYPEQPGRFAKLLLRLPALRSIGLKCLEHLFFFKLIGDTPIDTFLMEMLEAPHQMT
# human FXR [3] = molecular target: T2, human FXR; assay: FXR luciferase reporter gene assay (FXRE-luc) in HepG2 cells, agonistic mode; format: cell-based; conditions: 10 µM, 24 h, compound alone
# Experimental: FIGURE 3 Interaction of 7-alkylated derivatives of CDCA and 7-ELCA with human FXR in luciferase reporter gene assays. HepG2 cells were transiently co-transfected with the luciferase FXRE-luc construct and with expression pSG5-hFXR, pSG5-hRXRα, and pRL-TK vectors. Cells were treated with indicated concentrations for 24 h alone (A), an agonistic mode) or with 1 µM OCA as an FXR agonist (B–F), an antagonistic mode). […] IC50 values were calculated using concentration-response curves nonlinear fitting in GraphPad software.
# AML12 = assay: MTS viability assay; format: cell-based, murine; conditions: Mus musculus; AML12, 24 h, MTS; read-out: IC50 (µM), cell viability
# Experimental: as §1, §2
# MTS viability assay [4] = format: cell-based, murine; conditions: mouse, AML12 cells; AML12, 24 h, vehicle = 100%
# Experimental: as §1, §2
# FXR [5] = tested on: FXR; parameters: method as in Sun et al., 2018; conditions: ref Sun et al., 2018; read-out: IC50, FXR antagonist; cited from earlier work
# FXR [6] = tested on: FXR; parameters: method as in Li et al., 2013; Sayin et al., 2013; conditions: co-activator assay, ref Li et al., 2013, Sayin et al., read-out: IC50, FXR antagonist; cited from earlier work
# [7] = tested on: GPBAR1 mRNA, NCI-H716 cells; assay: GPBAR1 mRNA expression in differentiated NCI-H716 cells; format: cell-based, human; conditions: 10 µM, 2 h
# Experimental: FIGURE 8 Effects of 7-alkylated derivatives of CDCA and 7-ELCA on the membrane receptor GPBAR1. […]. (B) CRE-luc activation depends on the presence of GPBAR1. (C) Effects of LCA and 7-ELCA (both at 10 µM) on intracellular generation of cAMP in differentiated NCI-H716 cells after 30 min treatment. The increase in cAMP level (ΔcAMP) is presented as the difference between cAMP concertation in the treated sample after subtraction of the cAMP in the nontreated control sample. (D) Concentration-response curves for activation of GPBAR1 by LCA and 7-ELCA. EC50 values were calculated using nonlinear fitting of concentration-response curves. […] (G) 7-ELCA (10 µM) increases GLP-1 secretion in siRNA control but not in siRNA Gpbar1 transfected GLUTag cells after 1 h treatment. GLP-1 was normalized to protein concentration and GPBAR1 mRNA expression to GAPDH mRNA. Data are presented as a fold to control nontreated (NT) samples. Forskolin (FSK, 10 µM) was used as a GPBAR1-independent activator of cAMP production.
# NCI-H716 cells = assay: GLP-1 secretion (ELISA) in differentiated NCI-H716 cells; format: cell-based, human; conditions: 10 µM, 2 h
# various cell lines = assay: MTS viability assay, summary over cell lines; format: cell-based; conditions: 24 h, read-out: IC50, cellular viability
# Experimental: as §1, §2
# [8] = GW4064 1 µM, read-out: relative response (%) to the model FXR ligand activation (set to be 100%), GW4064 1 µM
structure (smiles),measurement,setting,value
"C[C@H](CCC(=O)O)[C@H]1CCC2C3C(CC[C@@]21C)[C@@]1(C)CC[C@@H](O)C[C@H]1C[C@]3(O)C1CC1 (stereo partly drawn) [2i, 3α,7α-Dihydroxy-7β-cyclopropyl-5β-cholan-24-oic acid]",CRE-luc activation compared to LCA (in words),GPBAR1,comparable activities to LCA
same,IC50,HepG2,178.4 ± 1 µM
same,IC50,Huh7,> 200 µM
same,"viability at 24 h, 10 µM","MTS viability assay [1]; HepG2 cells, HepG2, 24 h",90.9 ± 0.9%
same,"viability at 24 h, 10 µM",MTS viability assay [1]; HepaRG cells,133 ± 12.2%
same,"viability at 24 h, 10 µM","MTS viability assay [1]; Huh7 cells, Huh7, 24 h",97.9 ± 10.4%
same,IC50,HepaRG,> 200 µM
same,remaining activity at 10 µM,human FXR [2]; [8],88.4 ± 4.2%
same,remaining activity at 40 µM,"human FXR [2]; tested compound 40 µM, CDCA 20 µM, * = significant effect on cellular viability, read-out: relative response (%) to the model FXR ligand activation (set to be 100%), CDCA 20 µM",60 ± 5.8%
same,remaining activity at 40 µM,"human FXR [2]; tested compound 40 µM, GW4064 1 µM, * = significant effect on cellular viability, read-out: relative response (%) to the model FXR ligand activation (set to be 100%), GW4064 1 µM",60.5 ± 5.2%
same,melting point,,78 to 82 °C
same,"FXR activation, agonistic mode (in words)",human FXR [3],significant inhibition of the FXR basal activation
same,IC50,AML12,> 200 µM
same,"viability at 24 h, 10 µM",MTS viability assay [4],108 ± 3.2%
"C[C@H](CCC(=O)NCCS(=O)(=O)O)[C@H]1CC[C@H]2[C@@H]3[C@@H](O)C[C@@H]4C[C@H](O)CC[C@]4(C)[C@H]3CC[C@]12C [TUDCA, tauro-ursodeoxycholic acid]",IC50,FXR [5],75.1 µM
C[C@H](CCC(=O)NCC(=O)O)[C@H]1CC[C@H]2[C@@H]3[C@@H](O)C[C@@H]4C[C@H](O)CC[C@]4(C)[C@H]3CC[C@]12C [GUDCA],IC50,FXR [5],77.2 µM
C[C@H](CCC(=O)NCCS(=O)(=O)O)[C@H]1CC[C@H]2[C@@H]3[C@H](O)[C@@H](O)[C@@H]4C[C@H](O)CC[C@]4(C)[C@H]3CC[C@]12C [tauro-α-MCA],IC50,FXR [6],28 µM
"C[C@H](CCC(=O)NCCS(=O)(=O)O)[C@H]1CC[C@H]2[C@@H]3[C@@H](O)[C@@H](O)[C@@H]4C[C@H](O)CC[C@]4(C)[C@H]3CC[C@]12C [Tβ-MCA, tauro-β-muricholic acid, reference compound]",inhibition of FXR activation,"human FXR [2]; at 100 µM, with 1 µM OCA",15%
same,"relative response (%) to the model FXR ligand activation (set to be 100%), CDCA 20 µM","human FXR [2]; tested compound 40 µM, CDCA 20 µM, * = significant effect on cellular viability",95.0±5.7%
same,"relative response (%) to the model FXR ligand activation (set to be 100%), GW4064 1 µM","human FXR [2]; tested compound 40 µM, GW4064 1 µM, * = significant effect on cellular viability",84.8±6.2%
same,IC50,FXR [6],40 µM
"C[C@H](CCC(=O)O)[C@H]1CC[C@H]2[C@@H]3CC[C@@H]4C[C@H](O)CC[C@]4(C)[C@H]3CC[C@]12C [LCA, 3α-hydroxy-5β-cholan-24-oic acid, reference compound]",GPBAR1 mRNA expression,[7],stimulate
same,GLP-1 secretion,NCI-H716 cells,stimulate GLP-1 secretion
"CCCCCCCCC[C@@]1(O)C[C@@H]2C[C@H](O)CC[C@]2(C)C2CC[C@@]3(C)C(CC[C@@H]3[C@H](C)CCC(=O)O)C21 (stereo partly drawn) [2k, 3α,7α-Dihydroxy-7β-nonyl-5β-cholan-24-oic acid]",CRE-luc activation compared to LCA (in words),GPBAR1,weak or no ability to act as agonists of GPBAR1
same,IC50,HepG2,~10.9 µM
same,IC50,Huh7,21.8 µM
same,"viability at 24 h, 10 µM","MTS viability assay [1]; HepG2 cells, HepG2, 24 h",79.8 ± 2.5%
same,"viability at 24 h, 10 µM",MTS viability assay [1]; HepaRG cells,71.6 ± 2.8%
same,"viability at 24 h, 10 µM","MTS viability assay [1]; Huh7 cells, Huh7, 24 h",118 ± 4.9%
same,IC50,HepaRG,18.9 µM
same,remaining activity at 10 µM,human FXR [2]; [8],84.8 ± 1.8%
same,IC50,various cell lines,~15 µM
same,melting point,,78 to 80 °C
same,"FXR activation, agonistic mode (in words)",human FXR [3],significant inhibition of the FXR basal activation
same,IC50,AML12,12.5 µM
same,"viability at 24 h, 10 µM",MTS viability assay [4],68 ± 1.4%
